Results published in ChEMBL document CHEMBL1201862, “PubChem BioAssay data set” (2004).
The source made the active and inactive calls.

What was measured:
[1] = target: T1, Sentrin-specific protease 8 (Homo sapiens, UniProt Q96LD8); assay type: functional;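 further: luminescence read-out of SENP8 inhibition, dose-response confirmation following an ultra-high-throughput screen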
T1 sequence (Q96LD8 whole entry): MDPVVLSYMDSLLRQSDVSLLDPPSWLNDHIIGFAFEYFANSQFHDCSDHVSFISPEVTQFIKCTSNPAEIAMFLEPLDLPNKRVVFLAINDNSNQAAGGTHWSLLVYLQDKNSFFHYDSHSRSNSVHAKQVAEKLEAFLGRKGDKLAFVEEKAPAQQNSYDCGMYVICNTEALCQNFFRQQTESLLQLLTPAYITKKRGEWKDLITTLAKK

[2] = target: T2, Caspase-3 (Homo sapiens, UniProt P42574); assay type: functional;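 further: Dose-response selectivity test against caspase-3 for candidate inhibitors of sentrin-specific proteases (SENPs)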
T2 sequence (P42574 whole entry): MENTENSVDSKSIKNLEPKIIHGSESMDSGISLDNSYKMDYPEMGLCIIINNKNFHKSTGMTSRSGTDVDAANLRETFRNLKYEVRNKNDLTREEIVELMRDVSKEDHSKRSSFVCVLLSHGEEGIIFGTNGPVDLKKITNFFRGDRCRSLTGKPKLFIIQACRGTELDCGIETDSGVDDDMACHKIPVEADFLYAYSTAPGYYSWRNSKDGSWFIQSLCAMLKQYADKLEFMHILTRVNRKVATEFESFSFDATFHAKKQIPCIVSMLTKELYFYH

[3] = target: T3, Sentrin-specific protease 6 (Homo sapiens, UniProt Q9GZR1); assay type: functional;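 further: Luminescence-based dose-response confirmatory assay of SENP6 inhibition, following up an ultra-high-throughput screen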
T3 sequence (Q9GZR1 whole entry): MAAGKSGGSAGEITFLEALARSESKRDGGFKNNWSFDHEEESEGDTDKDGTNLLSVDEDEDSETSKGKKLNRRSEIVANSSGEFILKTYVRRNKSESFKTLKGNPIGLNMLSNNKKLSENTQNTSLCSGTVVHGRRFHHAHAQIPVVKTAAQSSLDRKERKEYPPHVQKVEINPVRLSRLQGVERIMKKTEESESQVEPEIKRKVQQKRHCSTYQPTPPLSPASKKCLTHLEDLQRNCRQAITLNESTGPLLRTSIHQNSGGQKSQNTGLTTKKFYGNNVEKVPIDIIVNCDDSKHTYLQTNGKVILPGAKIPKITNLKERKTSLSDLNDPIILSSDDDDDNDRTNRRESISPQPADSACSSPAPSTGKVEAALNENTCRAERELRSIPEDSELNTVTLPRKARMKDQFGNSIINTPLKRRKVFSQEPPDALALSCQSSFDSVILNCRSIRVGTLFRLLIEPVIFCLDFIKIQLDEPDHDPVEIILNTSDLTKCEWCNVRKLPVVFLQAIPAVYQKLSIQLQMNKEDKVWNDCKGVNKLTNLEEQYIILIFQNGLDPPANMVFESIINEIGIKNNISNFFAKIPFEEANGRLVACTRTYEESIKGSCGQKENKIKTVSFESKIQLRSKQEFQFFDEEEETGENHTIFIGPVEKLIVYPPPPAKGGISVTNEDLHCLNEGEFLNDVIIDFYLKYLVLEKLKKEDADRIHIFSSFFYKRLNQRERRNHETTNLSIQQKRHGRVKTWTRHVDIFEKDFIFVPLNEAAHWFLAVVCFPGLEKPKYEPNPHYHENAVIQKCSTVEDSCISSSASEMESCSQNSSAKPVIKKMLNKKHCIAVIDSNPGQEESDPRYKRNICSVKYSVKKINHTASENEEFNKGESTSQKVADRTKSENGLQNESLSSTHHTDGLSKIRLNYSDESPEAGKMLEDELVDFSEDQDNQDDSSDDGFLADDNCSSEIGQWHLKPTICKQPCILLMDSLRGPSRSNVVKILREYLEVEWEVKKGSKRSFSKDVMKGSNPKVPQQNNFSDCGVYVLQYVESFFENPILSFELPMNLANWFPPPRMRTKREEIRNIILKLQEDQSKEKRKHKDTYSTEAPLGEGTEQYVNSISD

[4] = target: T4, Sentrin-specific protease 7 (Homo sapiens, UniProt Q9BQF6); assay type: functional;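 further: Luminescence-based dose-response confirmation of ultra-high-throughput screening hits, measuring inhibition of SENP7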
T4 sequence (Q9BQF6 whole entry): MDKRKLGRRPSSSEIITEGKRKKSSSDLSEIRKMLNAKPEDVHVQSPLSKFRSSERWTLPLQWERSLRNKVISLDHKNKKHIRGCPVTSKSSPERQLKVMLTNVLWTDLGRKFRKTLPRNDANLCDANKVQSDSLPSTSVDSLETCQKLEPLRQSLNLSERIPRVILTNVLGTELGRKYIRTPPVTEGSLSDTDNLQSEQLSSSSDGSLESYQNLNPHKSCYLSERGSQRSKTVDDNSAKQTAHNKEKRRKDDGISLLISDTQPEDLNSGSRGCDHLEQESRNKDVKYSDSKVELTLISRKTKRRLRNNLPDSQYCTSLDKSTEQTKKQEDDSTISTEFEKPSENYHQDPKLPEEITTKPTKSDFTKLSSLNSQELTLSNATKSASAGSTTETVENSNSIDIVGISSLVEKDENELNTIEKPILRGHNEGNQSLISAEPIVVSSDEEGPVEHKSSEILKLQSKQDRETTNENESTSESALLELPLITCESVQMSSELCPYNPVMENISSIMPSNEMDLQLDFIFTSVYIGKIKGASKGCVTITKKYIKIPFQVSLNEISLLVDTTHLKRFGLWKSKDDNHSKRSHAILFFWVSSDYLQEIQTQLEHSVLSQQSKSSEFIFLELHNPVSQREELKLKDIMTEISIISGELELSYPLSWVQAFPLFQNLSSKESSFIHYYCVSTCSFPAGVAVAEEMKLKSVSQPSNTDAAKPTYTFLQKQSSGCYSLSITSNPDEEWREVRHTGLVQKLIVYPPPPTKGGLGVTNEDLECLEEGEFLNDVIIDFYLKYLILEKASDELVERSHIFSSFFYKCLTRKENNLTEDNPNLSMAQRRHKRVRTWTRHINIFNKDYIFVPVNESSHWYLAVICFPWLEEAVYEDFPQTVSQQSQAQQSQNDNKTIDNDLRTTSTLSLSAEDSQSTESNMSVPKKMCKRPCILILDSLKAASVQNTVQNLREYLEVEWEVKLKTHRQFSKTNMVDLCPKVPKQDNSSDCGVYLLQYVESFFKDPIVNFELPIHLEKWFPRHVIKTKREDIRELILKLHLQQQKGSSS

[5] = test system: P388; test: cells; assay type: functional; settings: Mus musculus
[6] = test system: P388/ADR; test: cells; assay type: functional; settings: Mus musculus
[7] = test system: SN12K1; test: cells; assay type: functional; settings: Homo sapiens
[8] = target: T5, Protein RecA (Mycobacterium tuberculosis, UniProt P9WHJ3); test: Fluorescence Cell-Free Homogeneous Dose Retest to Identify Inhibitors of RecA-Intein Splicing Activity. [Related pubchem assays (depositor defined):AID2097, AID2223, AID489010, AID492950]; assay type: functional
T5 sequence (P9WHJ3 whole entry): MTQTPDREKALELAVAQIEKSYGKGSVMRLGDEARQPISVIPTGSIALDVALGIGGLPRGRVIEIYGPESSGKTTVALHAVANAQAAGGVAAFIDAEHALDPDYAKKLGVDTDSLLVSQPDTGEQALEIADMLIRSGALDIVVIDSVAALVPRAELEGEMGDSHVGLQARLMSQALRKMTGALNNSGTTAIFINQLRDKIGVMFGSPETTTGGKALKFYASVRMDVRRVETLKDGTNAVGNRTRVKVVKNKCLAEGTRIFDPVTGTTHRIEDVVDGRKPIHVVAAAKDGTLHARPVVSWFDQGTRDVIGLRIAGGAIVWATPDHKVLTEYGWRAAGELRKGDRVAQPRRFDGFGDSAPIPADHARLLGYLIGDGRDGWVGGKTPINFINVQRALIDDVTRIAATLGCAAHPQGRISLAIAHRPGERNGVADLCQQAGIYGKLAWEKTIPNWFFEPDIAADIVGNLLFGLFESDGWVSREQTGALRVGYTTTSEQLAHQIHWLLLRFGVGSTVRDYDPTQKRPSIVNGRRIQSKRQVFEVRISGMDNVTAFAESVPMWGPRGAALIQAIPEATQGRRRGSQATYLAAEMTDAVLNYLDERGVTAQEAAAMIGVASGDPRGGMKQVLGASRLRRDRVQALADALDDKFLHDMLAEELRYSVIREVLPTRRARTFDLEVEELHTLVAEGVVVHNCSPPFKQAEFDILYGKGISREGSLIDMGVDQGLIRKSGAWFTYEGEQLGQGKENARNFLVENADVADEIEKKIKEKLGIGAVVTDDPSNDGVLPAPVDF

[9] = target: Nonstructural protein 1 (Influenza A virus, UniProt Q194T2); assay type: functional, Influenza A virus (A/California/07/2009(H1N1))
Chain of Nonstructural protein 1 (Q194T2 whole entry): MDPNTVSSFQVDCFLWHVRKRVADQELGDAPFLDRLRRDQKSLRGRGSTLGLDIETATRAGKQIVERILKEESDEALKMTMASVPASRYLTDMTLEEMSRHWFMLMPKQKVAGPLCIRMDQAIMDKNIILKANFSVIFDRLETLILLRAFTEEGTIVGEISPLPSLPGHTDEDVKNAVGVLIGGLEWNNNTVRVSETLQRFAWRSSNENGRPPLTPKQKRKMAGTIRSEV

[10] = target: T6, Replicative DNA helicase DnaB (Mycobacterium tuberculosis, UniProt P9WMR3); test: DnaB intein splicing inhibitors, dose response, biochemical, cell-free fluorescence (AID 449749); assay type: functional
T6 sequence (P9WMR3 whole entry): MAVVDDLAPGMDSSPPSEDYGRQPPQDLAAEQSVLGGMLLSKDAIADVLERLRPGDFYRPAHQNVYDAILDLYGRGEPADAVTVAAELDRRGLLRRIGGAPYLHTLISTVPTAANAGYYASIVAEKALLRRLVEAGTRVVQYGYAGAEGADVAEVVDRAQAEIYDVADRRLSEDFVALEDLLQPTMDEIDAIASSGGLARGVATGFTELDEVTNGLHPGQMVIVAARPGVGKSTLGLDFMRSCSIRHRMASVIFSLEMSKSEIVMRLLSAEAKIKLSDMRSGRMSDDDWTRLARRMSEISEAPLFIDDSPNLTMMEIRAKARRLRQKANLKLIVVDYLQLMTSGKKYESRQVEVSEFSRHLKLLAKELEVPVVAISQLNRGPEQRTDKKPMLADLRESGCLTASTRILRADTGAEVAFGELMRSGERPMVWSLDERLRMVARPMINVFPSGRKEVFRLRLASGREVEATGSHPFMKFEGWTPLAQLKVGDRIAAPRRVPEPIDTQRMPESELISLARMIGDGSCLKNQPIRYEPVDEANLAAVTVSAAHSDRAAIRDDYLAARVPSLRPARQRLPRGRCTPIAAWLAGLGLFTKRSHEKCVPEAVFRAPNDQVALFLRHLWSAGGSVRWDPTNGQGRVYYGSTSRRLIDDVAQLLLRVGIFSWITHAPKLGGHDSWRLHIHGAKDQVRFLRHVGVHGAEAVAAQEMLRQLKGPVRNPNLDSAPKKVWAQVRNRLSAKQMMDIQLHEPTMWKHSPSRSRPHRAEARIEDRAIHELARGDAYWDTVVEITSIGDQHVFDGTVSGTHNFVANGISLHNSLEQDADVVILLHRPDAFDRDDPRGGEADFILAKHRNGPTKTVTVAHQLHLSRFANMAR

[11] = cytotoxicity in HEK-293T cells, dose response, cytotoxicity control for TCR NF-kB inhibitor project, luminescence, T-cell screen hits (AID 489026); assay type: functional, cell-based;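 further: cells exposed to compound about 14 hours before the viability readout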
[12] = test system: BJ; test: cells; assay type: functional, cell-based; settings: Homo sapiens
[13] = Luminescence Cell-Based Dose Retest to Confirm Inhibitors of Cancer Stem Cells. [Related pubchem assays (depositor defined):AID2717, AID2721]; assay type: functional; settings: Homo sapiens
[14] = test system: BJ; test: cytotoxicity toward BJ-TERT-LT-ST fibroblasts, dose response, cell-based, RAS-independent, luminescence (AID 1935); assay type: functional; settings: Homo sapiens;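 further: BJ fibroblasts immortalized with TERT plus LT and ST oncogenes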
[15] = test system: BJ; test: cytotoxicity toward BJ-TERT fibroblasts, dose response, cell-based, RAS-independent, luminescence (AID 1933); assay type: functional; settings: Homo sapiens
[16] = cytotoxicity toward DRD oncogenic fibroblasts, dose response, cell-based, non-viral oncogenic, luminescence (AID 1934); assay type: functional; settings: Homo sapiens
[17] = growth suppression of PTEN-null colon cells, dose response, cell-based, HCT116 PTEN knockout (AID 1047); assay type: functional;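 further: HCT116 colon tumor cells with PTEN knocked out; cells exposed to compound for 60 hours before readout; potency for loss of cell viability measured by luminescence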
[18] = growth suppression of beta-catenin-knockout colon cells, dose response, cell-based, HCT116, human colon tumor (AID 1045); assay type: functional;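 further: HCT116 colon tumor cells with beta catenin knocked out; cells exposed to compound for 60 hours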

O=C(Nc1ccc2c(c1)CCC2)c1ccc(Br)s1
IC50 [1]: 4.31 µM (active)
IC50 [2]: 17.5 µM (active)
IC50 [3]: 5.03 µM (active)
IC50 [4]: 3.4 µM (active)

COc1cccc(-c2nnc(-c3ccccc3[N+](=O)[O-])o2)c1
IC50 [1]: > 100 µM (inactive)
IC50 [2]: 19.1 µM (active)
IC50 [3]: > 100 µM (inactive)
IC50 [4]: 10.4 µM (active)

C=C1C(=O)OC2/C=C(\C)CC(O)/C=C(/CO)CC(OC(=O)/C(C)=C/C)C12 (stereo unspecified)
GI50 [5]: 11.1 µM (inactive)
GI50 [6]: 16.7 µM (inactive)
GI50 [7]: 24.8 µM (inactive)

Cc1ccc(/C=N/OC(=O)c2nn(C)cc2Cl)cc1
IC50 [1]: 54.7 µM (active)
IC50 [2]: 24 µM (active)
IC50 [3]: 39 µM (active)
IC50 [4]: 13 µM (active)

CC1=NN(Cc2ccccc2)C(=O)/C1=C/c1ccc(N(C)C)cc1
EC50 [8]: 1.22 µM (active)
IC50 [9]: 50.9 µM (active)
AC50 [10]: 4.15 µM (active)

COc1ccc(/C=N\NC(=O)c2ccccc2F)cc1COc1ccc(F)cc1F
IC50 [11]: > 80 µM (inactive)

CCOC(=O)CSC1=C(C#N)C(c2ccc(C)s2)CC(=O)N1 (stereo unspecified)
IC50 [11]: > 80 µM (inactive)

C=C1C(=O)O[C@H]2C1[C@H](OC(=O)/C(C)=C\COC(C)=O)C[C@]1(CO1)[C@@H]1[C@H](O)[C@H]3O[C@@]3(C)[C@@H]12 (stereo partly specified)
GI50 [5]: 3.4 µM (inactive)
GI50 [6]: 8.13 µM (inactive)
GI50 [7]: 24.8 µM (inactive)

C=C(C)COc1ccc(-c2n[nH]cc2-c2ccc(OC)c(OC)c2)c(O)c1
EC50 [12]: 1.84 µM (active)
AC50 [13]: 0.882 µM (active)
EC50 [14]: 2.48 µM (active)
IC50 [11]: 34.3 µM (inactive)
EC50 [15]: 8.31 µM (active)
EC50 [16]: 2.4 µM (active)

Cc1cn([C@H]2C[C@H](N=[N+]=[N-])[C@@H](CO)O2)c(=O)[nH]c1=O [ZIDOVUDINE]
GI50 [5]: 99.3 µM (inactive)
GI50 [6]: > 100 µM (inactive)
GI50 [7]: > 100 µM (inactive)

CNC(=O)OCc1nc([S+](C)[O-])n(C)c1COC(=O)NC (stereo unspecified)
GI50 [5]: > 100 µM (inactive)
GI50 [6]: > 100 µM (inactive)
GI50 [7]: > 100 µM (inactive)

CCOc1cc(C(=O)N/N=C/C(Br)=C/c2ccccc2)cc(OCC)c1OCC
EC50 [17]: 1.39 µM (active)
IC50 [11]: > 80 µM (inactive)
EC50 [18]: 1.34 µM (active)

C=C1[C@@H](C)[C@H]2[C@H](Cc3ccccc3)NC(=O)[C@]23OC(=O)/C=C/[C@H](O)CCC[C@@H](C)C/C=C/[C@H]3[C@@H]1O
GI50 [5]: 12.4 µM (inactive)
GI50 [6]: 15.3 µM (inactive)
GI50 [7]: 0.31 µM (active)
